Measurements from ChEMBL document CHEMBL1201862, “PubChem BioAssay data set” (2004).
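In this assay, cells in 96-well plates receive the compound at five concentrations for 48 hours. Endpoints are linearly interpolated between the surrounding concentrations. GI50: concentration for 50% inhibition of growth.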 Calls of active or inactive are those of the source. No stated cut-off is given here; in the data, active = GI50 up to about 1.1 µM and inactive = higher.

Key:
Test in all cases: NCI anticancer screen, dose series, 48 h
786-0 = system: 786-0
A498 = system: A498
A549 = system: A549
ACHN = system: ACHN
BT-549 = system: BT-549
CAKI-1 = system: CAKI-1
COLO 205 = system: COLO 205
EKVX = system: EKVX
HCC 2998 = system: HCC 2998
HCT-116 = system: HCT-116
HCT-15 = system: HCT-15
HOP-62 = system: HOP-62
HOP-92 = system: HOP-92
HT-29 = system: HT-29
Hs-578T = system: Hs-578T
IGROV-1 = system: IGROV-1
K562 = system: K562
KM12 = system: KM12
LOX IMVI = system: LOX IMVI
M14 = system: M14
MCF7 = system: MCF7
MDA-MB-231 = system: MDA-MB-231
MDA-MB-435 = system: MDA-MB-435
MDA-N = system: MDA-N
MOLT-4 = system: MOLT-4
Malme-3M = system: Malme-3M
NCI-H226 = system: NCI-H226
NCI-H23 = system: NCI-H23
NCI-H460 = system: NCI-H460
NCI-H522 = system: NCI-H522
NCI/ADR-RES = system: NCI/ADR-RES
OVCAR-4 = system: OVCAR-4
OVCAR-5 = system: OVCAR-5
OVCAR-8 = system: OVCAR-8
PC-3 = system: PC-3
RPMI-8226 = system: RPMI-8226
RXF 393 = system: RXF 393
SF-268 = system: SF-268
SF-295 = system: SF-295
SF-539 = system: SF-539
SK-MEL-28 = system: SK-MEL-28
SK-MEL-2 = system: SK-MEL-2
SK-MEL-5 = system: SK-MEL-5
SK-OV-3 = system: SK-OV-3
SN12C = system: SN12C
SNB-19 = system: SNB-19
SNB-75 = system: SNB-75
SR = system: SR
SW-620 = system: SW-620
T47D = system: T47D
TK-10 = system: TK-10
U-251 = system: U-251
UACC-257 = system: UACC-257
UACC-62 = system: UACC-62
UO-31 = system: UO-31

For `C[C@H]1[C@H](C)N(Cc2ccccc2)P(=O)(C(O)/C=C/c2ccccc2)N1Cc1ccccc1` (stereo not given in full), the GI50 (786-0) was 5.32 µM (inactive), the GI50 (A498) was 5.45 µM (inactive) and the GI50 (A549) was 8.07 µM (inactive). For the same molecule, the GI50 (ACHN) was 8.47 µM (inactive), the GI50 (BT-549) was 12 µM (inactive) and the GI50 (CAKI-1) was 8.28 µM (inactive). For the same molecule, the GI50 (COLO 205) was 6.64 µM (inactive), the GI50 (EKVX) was 7.67 µM (inactive) and the GI50 (HCC 2998) was 6.3 µM (inactive). For the same molecule, the GI50 (HCT-116) was 5.21 µM (inactive), the GI50 (HCT-15) was 9.29 µM and the GI50 (HOP-62) was 8.41 µM (inactive). The GI50 (HOP-92) was 7.18 µM (inactive), the GI50 (HT-29) was 5.24 µM (inactive) and the GI50 (Hs-578T) was 4.79 µM (inactive). The GI50 (IGROV-1) was 8.32 µM (inactive), the GI50 (K562) was 7.74 µM (inactive) and the GI50 (KM12) was 8.91 µM (inactive). The GI50 (LOX IMVI) was 6.76 µM (inactive), the GI50 (M14) was 4.62 µM (inactive) and the GI50 (MCF7) was 8.3 µM (inactive). For the same molecule, the GI50 (MDA-MB-231) was 6.12 µM (inactive), the GI50 (MDA-MB-435) was 4.33 µM (inactive) and the GI50 (MDA-N) was 5.55 µM (inactive). The GI50 (MOLT-4) was 8.73 µM (inactive), the GI50 (Malme-3M) was 5.58 µM (inactive) and the GI50 (NCI-H226) was 7.52 µM (inactive). The GI50 (NCI-H23) was 9.84 µM (inactive), the GI50 (NCI-H460) was 3.72 µM (inactive) and the GI50 (NCI-H522) was 5.83 µM (inactive). For the same molecule, the GI50 (NCI/ADR-RES) was 10.4 µM (inactive), the GI50 (OVCAR-4) was 5.04 µM (inactive) and the GI50 (OVCAR-5) was 6.61 µM (inactive). The GI50 (OVCAR-8) was 8.53 µM (inactive), the GI50 (PC-3) was 5.37 µM (inactive) and the GI50 (RPMI-8226) was 6.22 µM (inactive). For the same molecule, the GI50 (RXF 393) was 6.24 µM (inactive), the GI50 (SF-268) was 6.84 µM (inactive) and the GI50 (SF-295) was 6.95 µM (inactive). The GI50 (SF-539) was 5.07 µM (inactive), the GI50 (SK-MEL-28) was 8.51 µM (inactive) and the GI50 (SK-MEL-2) was 4.7 µM (inactive). For the same molecule, the GI50 (SK-MEL-5) was 4.55 µM (inactive), the GI50 (SK-OV-3) was 9.68 µM (inactive) and the GI50 (SN12C) was 4.6 µM (inactive). The GI50 (SNB-19) was 12 µM (inactive), the GI50 (SNB-75) was 6.95 µM (inactive) and the GI50 (SR) was 6.55 µM (inactive). For the same molecule, the GI50 (SW-620) was 9.25 µM (inactive), the GI50 (T47D) was 6.27 µM (inactive) and the GI50 (TK-10) was 7.01 µM (inactive). The GI50 (U-251) was 5.11 µM (inactive), the GI50 (UACC-257) was 5.42 µM (inactive) and the GI50 (UACC-62) was 4.18 µM (inactive). For the same molecule, the GI50 (UO-31) was 5.27 µM (inactive).
